Assay results published in a melting point compilation (Tetko et al.; mined from patent text by program, amines drawn as free bases though some values may be those of a salt).

melting point | SMILES
167 to 170 °C | Oc1ccc(-c2cc3cc(O)ccc3o2)c(-c2ccccc2)c1
61 to 63 °C | CCCCc1oc2ccc(C(=O)OC)cc2c1C(=O)c1ccc(OCCCNCC(C)(C)C)cc1
112 to 113 °C | CCOC(=O)CC(NC(=O)c1ccc(Cl)cc1)C(=O)c1cccs1 (stereo not given)
156 to 157 °C | CC(C)(C)OC(=O)CC1(O)CCc2c([nH]c3ccccc23)C1=O (stereo not given)
225 °C | C1CCC(Nc2nc(NC3CCCCC3)nc(NC3CCCCC3)n2)CC1
218 to 219 °C | COC(=O)c1ccc(N2C(=O)c3ccccc3C2=O)cc1O
188 to 193 °C | COCCOc1cc2ncc(C#N)c(C)c2cc1OC
120 to 122 °C | CCCCCCN(CCC12CC3CC(CC(C3)C1)C2)C(=O)NCCCc1ccncc1
82 to 84 °C | CC(C)(C)OC(=O)c1cc[nH]c1
167 to 168 °C | COc1ccc(Cn2cccc2C(=O)CC(=O)C(=O)O)cc1
155 to 159 °C | CC(C)(C)c1nc2cc(N3CCSCC3)c(N=C=S)cc2s1
118 to 119 °C | CC(C)Cn1cc(F)c(NCc2ccccc2F)nc1=O
260 °C | O=C(NN=Cc1ccc(C(F)(F)F)cc1)c1ccc(O)cc1
124 to 125 °C | COc1ccc2c(c1)c(C(=O)N1CCN(C)CC1)c(N1CCNCC1)n2C
138 to 140 °C | CCC(CC)n1cc(C)nc(N2CCc3cc(OC)cc(C)c32)c1=O
245 to 248 °C | CCN1CCN(c2cc3c(cc2Cl)c(=O)c(C(=O)O)cn3CC)CC1
110 to 112 °C | CCCCCC(CC(=O)OC)c1cc(C=O)c(OC)cc1OC (stereo not given)
82 to 84 °C | O=C(Oc1ccc(OC(=O)c2ccccc2)c(-c2ccccc2)c1)c1cc(O)c(O)c(O)c1
65 to 70 °C | NC1COc2ccccc2NC1=O (stereo not given)
51 to 52 °C | CN=C1SCN(C(C)(C)C)C(=O)N1C
190 °C | Clc1ccnc2ncnn12
46 °C | CCOC(=O)C(C)(C)Oc1ccc(C#N)cc1C
122 to 123 °C | CC(=O)OC1CSC(Oc2cccc(-c3cccs3)c2)C(OC(C)=O)C1OC(C)=O (stereo not given)
95 to 97 °C | CN(C)CCCOc1cnc(-c2cccc(CO)c2)nc1

melting point | SMILES
235 to 238 °C | Nc1ccc(NC(=O)c2ccc(N)cc2O)cc1
226 to 229 °C | COc1cc2c(cc1OC)S(=O)(=O)CCC(C(=O)N1CCN(C(=O)c3cc(OC)c(OC)c(OC)c3)CC1)=C2
92 °C | N#Cc1cc(F)c(-n2c(=O)cc(C(F)(F)F)[nH]c2=O)cc1Oc1ccc2ccccc2c1
48 to 50 °C | CCCCCCCCOC(=O)CCCCCNC(=O)c1cc(OCc2ccccc2)ccc1OCc1ccccc1
133 to 134 °C | O=C1[C@H]2CCC[C@H]2N(C(=O)CCCCCn2ccnc2)c2ccccc2N1Cc1ccccc1 (relative stereo)
81 to 83 °C | COC(=O)c1ccoc1CCNC(=O)C[C@H]1O[C@H](c2cccc(OC)c2OC)c2cc(Cl)ccc2N(CC(C)(C)CO)C1=O
199 to 203 °C | CC(CCO)NC1=NS(=O)(=O)c2sc(Cl)cc2N1 (stereo not given)
78 to 79 °C | O=C(O)CCC(O)c1ccc(-c2ccc(F)cc2Cl)cc1 (stereo not given)
75 °C | COC(=O)CCCOc1cc([N+](=O)[O-])c(C=O)cc1OC
191 to 192 °C | Cc1c(C)c2c(c(C)c1NC=O)OC(C)(C)C2=O
129 to 130 °C | COC(=O)Cc1c(C(=O)OC)ccn1CCBr
182 to 185 °C | CN(N)c1cc(Cl)ncn1
142 to 145 °C | COc1cc(OC)c(-c2cccs2)cc1/C=C/C(=O)c1ccc(S(=O)(=O)Nc2cc[nH]n2)cc1
97 to 99 °C | Cc1cc(C)c2c(n1)N(CCN(C(C)C)C(C)C)C(=O)N(C)C2
258 to 262 °C | O=C(O)C1=CCN2C=CC=CC2=C1
140 to 142 °C | COc1ccccc1N1CCN(C(=O)N(C)c2nc(C)c(C)nc2OC)CC1
78 to 80 °C | COC(F)(F)C(F)(F)C(N)=O
78 to 79 °C | CCCCCCCCCCCCCCCCCC(=O)Nc1cccc(N(CC(=O)OC)CC(=O)OC)c1
156 to 157 °C | COc1ccc(O)c(NC(C)=O)c1
160 °C | CCCCCCN1CCN(Cc2ccc(NC(=S)Nc3ccccc3N)cc2)C(=O)C1=O
122 to 124 °C | Cc1c(C#N)ccc([N+](=O)[O-])c1C#N
215 to 218 °C | CCc1c(Oc2c(Cl)cc(C(F)(F)F)cc2Cl)n[nH]c1C
198 °C | COc1cc(-c2csc(N(CCC3CCCCC3)C(=O)c3cc4ccccc4n3CC(=O)O)n2)c(OC)cc1C
179 to 181 °C | Cc1ccc(CC2CCN(C(=O)C(=O)Nc3ccc(NS(C)(=O)=O)cc3)CC2)cc1

melting point | SMILES
185 to 186 °C | CC[C@H](C)[C@H](NC(=O)Nc1cccc(C)c1)C(=O)N[C@H](CO)Cc1c[nH]c2ccccc12
184 to 188 °C | CS(=O)(=O)c1ccc(-c2cccn2-c2ccc(Cl)cc2)cc1
104 to 106 °C | Cc1cc(C(C)NC(=O)N(C)O)c(C)s1 (stereo not given)
77 to 79 °C | COc1ccc(C[C@H](CC(=O)N2CCOCC2)C(=O)OCc2ccccc2)cc1
248 to 251 °C | COc1cc(OC)c2c(=O)[nH]c(-c3ccc(OC)c(-c4ccc(C(=O)N(C)C)cc4C)n3)nc2c1
189 to 192 °C | CC1=NN(c2cc(-c3ccnc(Nc4cccc(Cl)c4)n3)ccn2)C(=O)CC1
153 to 154 °C | CC(C)(C)Sc1cccc(-c2nc(=O)c3ccccc3s2)n1
269 to 270 °C | Cc1nc2ncc(C(=O)NCc3ccc(Cl)cc3)c(O)c2cc1Br
72 to 73 °C | N#Cc1ccc2oc(CCc3ccc(CO)cc3)cc2c1
220 to 222 °C | CC(=O)Nc1cc(O)c(C(=O)NC2CCN(Cc3ccccc3)CC2)cc1[N+](=O)[O-]
153 to 154 °C | CCCCCC(c1ccc(OC)cc1OC)C(C(N)=O)c1cc(C(=O)O)ccc1C(C)(C)C (stereo not given)
169 °C | Cc1cc(C(=O)NCc2ccc(Br)cc2F)c(OCC(=O)O)cc1F
95 to 120 °C | COc1ccc(OCC(O)CN2CCC(C3Oc4ccccc4Cn4cccc43)CC2)cc1 (stereo not given)
240 °C | CC(=O)Oc1c(C2CCN(CCCCNC(=O)c3ccc(NC(=O)c4ccc(Cl)cc4)cc3)CC2)ccc2ccccc12
155 to 156 °C | CC(C)C(NC(=O)OCc1ccccn1)C(=O)NC(Cc1ccccc1)C(O)C(Cc1ccccc1)NC(=O)C(NC(=O)OCc1ccccn1)C(C)C (stereo not given)
220 to 223 °C | CC(=O)NC(C(=O)O)C1c2ccccc2CCc2ccccc21 (stereo not given)
225 °C | CC(ON=c1c2nccc3cccc(c32)n2cccc12)C(=O)O (stereo not given)
65 to 67 °C | COC(=O)C(Cc1ccccc1)Cc1ccc(OCCn2c(=O)sc3cc(C(=O)c4ccccc4)ccc32)cc1 (stereo not given)
48 to 50 °C | COc1cc(CO)c(OC)c(CCl)c1
153 to 155 °C | CS(=O)(=O)O[C@@H]([C@H](OS(C)(=O)=O)[C@H](Cc1ccccc1)NC(=O)OCc1ccccc1)[C@H](Cc1ccccc1)NC(=O)OCc1ccccc1
190 °C | COc1cc2c(cc1OC)CN(CCCOc1ccc(NC(=O)c3cccc4c(=O)c5cccc(OC)c5[nH]c34)cc1)CC2
68 to 70 °C | Fc1c2c(nc3cc(Cl)ccc13)CCCC2
65.5 to 68.5 °C | CC(C)c1cccc(NC(=O)c2ccccc2[N+](=O)[O-])c1
186 °C | COc1ccccc1-c1ccc2cnc(Nc3ccc(N4CCN(CC(N)=O)CC4)c(F)c3)nn12

melting point | SMILES
168 to 169 °C | Cc1ncc(C#N)c(Nc2ccc3[nH]ccc3c2C)c1-c1cc2cc(C=O)ccc2o1
217 to 218 °C | COc1ccc2nc(-c3cc(C(F)(F)F)nn3-c3ccc(S(C)(=O)=O)cc3)sc2c1
68 to 70 °C | CCOC(C)COC1CCNCC1 (stereo not given)
174 °C | CNCCC1=C(C#N)C(c2cccc3nonc23)c2c[nH]nc2N1 (stereo not given)
194 to 195 °C | Cn1nc(C(=O)NCc2ccc(Cl)cc2)c(=O)c2cc(I)ccc21
99 to 100 °C | CCCCOC(=O)c1cccc2c1-c1ccccc1C2=C(C#N)C#N
113 °C | COc1ccc(CSC(C)(C)C(O)(CO)c2ccc(F)cc2F)cc1 (stereo not given)
250 to 252 °C | Cc1ccc(S(=O)(=O)NCC(CC(=O)Nc2ccc(C(=O)O)cc2)c2ccc(Cl)cc2)cc1 (stereo not given)
153 to 155 °C | CC(CC(=O)O)CC(=O)N(c1ccccc1)c1cc(C(C)(C)C)c(O)c(C(C)(C)C)c1 (stereo not given)
90 to 92 °C | CC(C)(C#N)c1cc(C#N)cc(Cn2cncn2)c1
135 to 139 °C | CCCCn1c(=O)n(CC)c(=O)c2c1ncn2S(=O)(=O)c1ccc(C)cc1
160 to 161 °C | Cc1ncccc1-c1nc(C(F)(F)F)cn1-c1ccc(S(C)(=O)=O)cc1
216 to 218 °C | O=c1[nH]c2occc2c2ccccc12
106 to 108 °C | Cc1ccc(S(=O)(=O)OCC(=O)C(=NO)C(=O)OC(C)(C)C)cc1
115 to 116 °C | CCCc1cccnc1N(CC)C1CCN(C(=O)c2ccc[nH]2)CC1
58 to 60 °C | OCC(CO)c1cccc2ccccc12
148 to 150 °C | CC(=O)Nc1nc(CCc2ccc(CBr)cc2)cs1
107 °C | COc1ccc(C=C2C(=O)C3(C)CCC2C3(C)C)cc1OC (stereo not given)
251 to 252 °C | O=C(CC(=O)c1ccccc1O)c1cc(O)c(O)c([N+](=O)[O-])c1
121 to 124 °C | OCC1C=CC(n2cnc3c(Cl)ncnc32)C1 (stereo not given)
115 °C | CC(C)(C)OC(=O)NCCCN(CCCCOC(=O)NCNC(=O)CCCCCCNC(=O)OCc1ccccc1)C(=O)OC(C)(C)C
233 to 234 °C | CC(=O)SCC(=O)Nc1ccc(C(=O)O)cc1

SMILES | melting point
COc1c(N2CCNCC2)c(F)cc2c(=O)c(C(=O)O)c3n(c12)C(C)S3 (stereo not given) | 278 to 280 °C
CN1Cc2cncn2-c2ccc(F)c(Cl)c2C1=O | 234 to 235 °C
CN1CCc2cc(O)c(O)c(SCc3ccco3)c2CC1 | 162 to 165 °C
Fc1ccccc1C1=NCc2cncn2-c2ccc(Cl)cc21 | 148 to 151 °C
CCC[C@H]1[C@@H](O)CC(=O)N1c1ccc(C#N)c(Cl)c1 | 143 to 146 °C
CCOCC1=CC(=O)C=C2CCC3C4CCC(=O)C4(C)CCC3C21C (stereo not given) | 95 to 98 °C
